Data: ChEMBL document CHEMBL1671682, “Inhibition of human immunodeficiency virus type 1 by triciribine involves the accessory protein nef” (Antimicrob Agents Chemother, 2010)
pIC50: −log10 of the molar value.

What was measured:
H9 = experiment: Cytotoxicity against human H9 cells by MTS assay; format: functional, cell-based
[1] = system: Human immunodeficiency virus 2; experiment: Antiviral activity against Human immunodeficiency virus 2 CDC 310342 infected in phytohemagglutininin and interleukin-2-stimulated PBMC assessed as inhibition of viral Reverse transcriptase by [3H]TTP incorporation assay; format: functional, organism-based
[2] = system: Human immunodeficiency virus 1; experiment: Antiviral activity against Human immunodeficiency virus 1 H10 harboring Tyr127His, Gly140Glu, Glu149Lys, Asp174Asn and Arg178Lys mutations in nef protein infecting in CEM-SS cells assessed as inhibition of viral Reverse transcriptase by [3H]TTP incorporation assay
[3] = system: Simian immunodeficiency virus; experiment: Antiviral activity against simian immunodeficiency virus Mac251 infected in phytohemagglutininin and interleukin-2-stimulated PBMC assessed as inhibition of viral Reverse transcriptase by [3H]TTP incorporation assay; format: functional, organism-based
[4] = system: Human immunodeficiency virus 1; experiment: Antiviral activity against Human immunodeficiency virus 1 A7 harboring Tyr127His mutation in nef protein infecting in CEM-SS cells assessed as inhibition of viral Reverse transcriptase by [3H]TTP incorporation assay
[5] = system: Human immunodeficiency virus 1; experiment: Antiviral activity against Human immunodeficiency virus 1 A12 harboring Tyr127His, Asp174Asn and Arg178Lys mutations in nef protein infecting in CEM-SS cells assessed as inhibition of viral Reverse transcriptase by [3H]TTP incorporation assay
PBMC [6] = experiment: Cytotoxicity against human PBMC assessed as cell viability at 1 uM by MTS assay; format: cell-based
CEM-SS = experiment: Cytotoxicity against human CEM-SS cells by MTS assay; format: functional, cell-based
[7] = system: Simian immunodeficiency virus; experiment: Antiviral activity against simian immunodeficiency virus 69R infected in phytohemagglutininin and interleukin-2-stimulated PBMC assessed as inhibition of viral Reverse transcriptase by [3H]TTP incorporation assay; format: functional, organism-based
PBMC [8] = experiment: Cytotoxicity against human PBMC assessed as cell viability at 10 uM by MTS assay; format: cell-based
[9] = system: Human immunodeficiency virus 1; experiment: Antiviral activity against Human immunodeficiency virus 1 D1 harboring Tyr127His mutation in nef protein infecting in CEM-SS cells assessed as inhibition of viral Reverse transcriptase by [3H]TTP incorporation assay
[10] = system: Human immunodeficiency virus 2; experiment: Antiviral activity against Human immunodeficiency virus 2 CDC 310319 infected in phytohemagglutininin and interleukin-2-stimulated PBMC assessed as inhibition of viral Reverse transcriptase by [3H]TTP incorporation assay; format: functional, organism-based
[11] = Cytotoxicity against human AA5 cells by MTS assay; format: cell-based

## Cc1cn([C@H]2C[C@H](N=[N+]=[N-])[C@@H](CO)O2)c(=O)[nH]c1=O [ZIDOVUDINE]
H9
  pIC50: < 7.00
[1]
  pIC50: 9.00
[2]
  pIC50: 7.40
[3]
  pIC50: 8.00
[4]
  pIC50: 7.55
[5]
  pIC50: 7.10
PBMC [6]
  Activity: Non-toxic
CEM-SS
  pIC50: < 7.00
[7]
  pIC50: 9.30
PBMC [8]
  Activity: Non-toxic
[9]
  pIC50: 7.82
[10]
  pIC50: 9.70
[11]
  pIC50: < 7.00
